{"source": "ChEMBL document CHEMBL4813917", "about": "“2-((1-Phenyl-1H-1,2,3-triazol-4-yl)methyl)-2-azabicyclo[3.2.1]octan-3-one derivatives: Simplification and modification of aconitine scaffold for the discovery of novel anticancer agents” (Eur J Med Chem, 2021)", "key": {"[1]": {"tested_on": "LoVo", "experiment": "Cell cycle arrest in human LoVo cells assessed as decrease of cells in G2/M phase at 20 to 80 nM measured after 24 hrs by PI staining based flow cytometry method", "assay_type": "functional", "conditions": "dose 20-80 nM"}, "[2]": {"tested_on": "SW-620", "experiment": "Cell cycle arrest in human SW-620 cells assessed as decrease of cells in G2/M phase at 20 to 80 nM measured after 24 hrs by PI staining based flow cytometry method", "assay_type": "functional", "conditions": "dose 20-80 nM"}, "[3]": {"molecular_target": "Heat shock protein HSP 90-alpha (Homo sapiens, UniProt P07900)", "experiment": "Inhibition of recombinant human N terminal his-tagged HSP90 alpha (1 to 732 residues) expressed in Escherichia coli measured after 60 mins by Flourescence polarization assay"}, "[4]": {"tested_on": "HepG2", "experiment": "Antiproliferative activity against human HepG2 cells assessed as inhibition of cell proliferation measured after 24 hrs by MTT assay", "assay_type": "functional, cell-based", "conditions": "HepG2, 24 h"}, "[5]": {"tested_on": "LoVo", "experiment": "Induction of apoptosis in human LoVo cells assessed as viable cells at 20 nM measured after 24 hrs by Annexin V/PI staining based flow cytometry method (reference value: 93.5%)", "assay_type": "functional", "conditions": "read-out: Activity"}, "[6]": {"tested_on": "LoVo", "experiment": "Induction of apoptosis in human LoVo cells assessed as early apoptotic cells at 20 nM measured after 24 hrs by Annexin V/PI staining based flow cytometry method (reference value: 1.6%)", "assay_type": "functional"}, "[7]": {"tested_on": "LoVo", "experiment": "Induction of apoptosis in human LoVo cells assessed as necrotic cells at 20 nM measured after 24 hrs by Annexin V/PI staining based flow cytometry method (reference value: 1.3%)", "assay_type": "functional"}, "[8]": {"tested_on": "LoVo", "experiment": "Induction of apoptosis in human LoVo cells assessed as necrotic cells at 80 nM measured after 24 hrs by Annexin V/PI staining based flow cytometry method (reference value: 1.3%)", "assay_type": "functional"}, "[9]": {"tested_on": "SW-620", "experiment": "Induction of apoptosis in human SW-620 cells assessed as viable cells at 20 nM measured after 24 hrs by Annexin V/PI staining based flow cytometry method (reference value: 94%)", "assay_type": "functional", "conditions": "read-out: Activity"}, "[10]": {"tested_on": "LoVo", "experiment": "Inhibition of cell migration in human LoVo cells at 20 to 80 nM measured after 24 hrs by wound healing assay", "assay_type": "functional, cell-based", "conditions": "dose 20-80 nM"}, "[11]": {"tested_on": "SW-620", "experiment": "Antitumour activity against human SW-620 cells xenografted in Balb/c mouse assessed as inhibition of tumour growth at 5 mg/kg, ip measured after 21 days", "assay_type": "functional", "conditions": "SW-620, ip, 504 h, time 21 day, read-out: TGI"}, "[12]": {"tested_on": "SW-620", "experiment": "Antitumour activity against human SW-620 cells xenografted in Balb/c mouse assessed as increase in cleaved-caspase 3 expression in tumour at 5 mg/kg, ip measured after 21 days immunochemical staining method", "assay_type": "functional, organism-based", "conditions": "time 21.0 day"}, "[13]": {"tested_on": "SW-620", "experiment": "Antitumour activity against human SW-620 cells xenografted in Balb/c mouse assessed as decrease in Ki67 expression in tumour at 5 mg/kg, ip measured after 21 days immunochemical staining method", "assay_type": "functional, organism-based", "conditions": "time 21.0 day"}, "[14]": {"tested_on": "LoVo", "experiment": "Induction of apoptosis in human LoVo cells assessed as decrease in Bcl-2 levels at 20 to 80 nM measured after 24 hrs by Western blot assay", "assay_type": "functional, cell-based", "conditions": "dose 20-80 nM"}, "[15]": {"tested_on": "LoVo", "experiment": "Induction of apoptosis in human LoVo cells assessed as increase in cleaved caspase-3 levels at 20 to 80 nM measured after 24 hrs by Western blot assay", "assay_type": "functional, cell-based", "conditions": "dose 20-80 nM"}}, "note": "The source made the active and inactive calls. The rule behind the calls is not given here.", "data": [{"smiles": "CC1(C)[C@H]2CC[C@]1(C)N(Cc1cn(-c3cccc(Br)c3)nn1)C(=O)C2", "values": [{"measurement": "Activity", "setting": "[1]", "value": "Active"}, {"measurement": "Activity", "setting": "[2]", "value": "Active"}, {"measurement": "IC50", "setting": "[3]", "value": 0.71, "unit": "nM"}, {"measurement": "IC50", "setting": "[4]", "value": 20, "unit": "nM"}, {"measurement": "viability at 0.02 µM", "setting": "[5]", "value": 91.9, "unit": "%"}, {"measurement": "Activity", "setting": "[6]", "value": 3, "unit": "%"}, {"measurement": "Activity", "setting": "[7]", "value": 1.9, "unit": "%"}, {"measurement": "Activity", "setting": "[8]", "value": 6, "unit": "%"}, {"measurement": "viability at 0.02 µM", "setting": "[9]", "value": 83.9, "unit": "%"}, {"measurement": "inhibition", "setting": "[10]", "value": "Dose-Dependent Effect"}, {"measurement": "inhibition in vivo at 5 mg/kg", "setting": "[11]", "value": 81.6, "unit": "%"}, {"measurement": "Activity", "setting": "[12]", "value": "Active"}, {"measurement": "Activity", "setting": "[13]", "value": "Active"}, {"measurement": "Activity", "setting": "[14]", "value": "Active"}, {"measurement": "Activity", "setting": "[15]", "value": "Active"}]}]}
